Experimental data taken from US6207648A, “Methods of using cytochrome P450 reductase for the enhancement of P450-based anti-cancer gene therapy” (priority 1998, dated 2001).

Assays:
[1] = tested on: CYP2B1; assay: Fluorometric assay of 4-hydroxy-CPA in culture medium of 9L tumor cells (Example 1); format: in vitro ADME, rat; conditions: 2 mM CPA, 24 h
Method: FIG. 7 is a bar graph showing that higher 4-hydroxy-CPA levels are produced by P450 and RED-containing tumor cells compared to tumor cells containing P450 alone. The parental CYP2B1^+ cell lines P3 and P17, and their corresponding RED overexpressing derivatives PR11 and PR7 were plated confluent (1.5×10^6 cells per 30 mm culture dish) so that the cell number remained relatively constant during the course of the experiment. Cells were incubated for 24 hours with 2 mM CPA in the presence of 5 mM semicarbazide. Medium was collected and then assayed for 4-hydroxy-CPA using a fluorometric assay, as described below in the "Materials and Methods" section of Example 1. Limit of detection in this assay was approximately 1 μM 4-hydroxy-CPA. The higher CPA 4-hydroxylase activity of line P 17 compared to line P3 is consistent both with the higher cytotoxic potential of CPA-conditioned media from P17 cells (FIG. 5), and with the greater cytotoxicity of CPA toward the P 17 cells in vitro (FIGS. 2, 3) and in vivo (FIG. 9, below).

[2] = in vivo; cited from earlier work
[3] = tested on: 9L/P450 gliosarcoma cells; assay: Growth inhibition assay of 9L/P450 cells, crystal violet (Example 2); format: cell-based, rat; conditions: for inhibition at 1000 µM: Rattus norvegicus, 96 h, 1 mM, 4 days
Method: Control cells for each cell line received no drug treatment. Relative cell number at the end of the experiment was determined by crystal violet staining as described below in "Material and Methods" of Example 2. Data (mean±SD, n=3) are based on the crystal violet absorbance in drug-treated plates as a percent of the corresponding drug-free controls.
Briefly, culture dishes were washed once with phosphate buffered saline (PBS), stained for 10 minutes with crystal violet (1.25 g crystal violet (Sigma) dissolved in 500 ml containing 50 ml of 37% formaldehyde and 450 ml methanol), and then washed with PBS, twice for 20 minutes per wash. Absorbance values were measured in an SLT Spectra microtiter plate reader using a 595 nm filter. Background absorbance determined from wells containing culture media alone was subtracted from each value.

Question: What does the source list for `O=P1(N(CCCl)CCCl)NCCCO1` (centres unmarked) [CPA, cyclophosphamide]?
Answer: 4-hydroxylated metabolites in 9L parental cells [1]: corresponds to the limit of detection; levels of 4-hydroxy-CPA formed by CYP2B1+ RED+++ vs parental CYP2B1+ cell lines ([1]; 5 mM semicarbazide): up to 3 fold; side effects of systemic distribution of drug and alkylating metabolites [2]: cardiotoxicity, renal toxicity, marrow suppression, and neurotoxoxicity; effect of P450 reductase overexpression on cytotoxicity ([3]; 9L/2B6 and 9L/2C18-Met cells, FIG. 15): markedly increased the cytotoxicity; cytotoxicity with RED transduction alone, in absence of P450 ([3]; 9L/RED, FIG. 15): did not confer CPA or IFA cytotoxicity; sensitivity of P450-negative cells ([3]; 9L/wt and 9L/pBabe, millimolar concentrations): insensitive; inhibition at 1000 µM ([3]; 9L/2B6): > 95%; inhibition at 1000 µM ([3]; 9L/2C9 and 9L/2C18-Thr): ~60%; inhibition at 1000 µM ([3]; 9L/2C19 and 9L/2C18-Met): 75 to 85%; inhibition at 1000 µM ([3]; 9L/3A4): ~90%; efficiency of P450 genes in chemosensitizing 9L cells to CPA ([3]; six human P450 genes): 2B6>2C18-Met~3A4>others
